Values of other authors in patent US11202800B1, “Methods for treating emotional cognitive disconnect” (priority 2013, dated 2021).

Assays:
[1] = system: Ca^2+ plus calmodulin-stimulated reactions; conditions: in rats
[2] = system: Ca^2+ plus calmodulin dependent phosphorylation of synapsin I; conditions: in rats

[Mg+2] [Mg^2+, magnesium]
Mg^2+ concentration range in which Ca^2+ plus calmodulin-stimulated reactions are maximally active [1]: 30 to 50 mM
Mg^2+ concentration above which Ca^2+ plus calmodulin dependent phosphorylation of synapsin I is progressively inhibited [2]: above 5 mM
